Article PMC4701715 (Current Therapeutic Research, Clinical and Experimental, 2015)

Legend:
Assay type in all cases: cell-based
rat GCGr [1] = molecular target: T1, rat GCGr (Rattus norvegicus, UniProt P30082); test: cAMP accumulation in CHO-K1 cells overexpressing the rat GCGr; details: CHO cells overexpressing rGCGr; 30 min incubation, room temperature, 1 mM IBMX; cAMP ELISA; mean, n = 3
T1 construct: host or cells: Chinese hamster ovary-K1 cells
Protocol: (§1) All cell culture reagents were obtained from Invitrogen (Life Technologies Ltd, Paisley, United Kingdom) unless otherwise stated. Chinese hamster ovary-K1 cells overexpressing the rat GCGr were routinely maintained in Dulbecco’s modified eagle medium (DMEM) with 25 mM glucose and 1 mM sodium pyruvate supplemented with 10% fetal bovine serum, 25 mM hydroxyethyl piperazineethanesulfonic acid, 1% antibiotic (100 U/mL penicillin and 100 µg/mL streptomycin), and 1 × nonessential amino acids. Chinese hamster lung cells overexpressing the rat GLP-1r were maintained in the same DMEM but without additional hydroxyethyl piperazineethanesulfonic acid or nonessential amino acids.
(§2) Levels of cAMP accumulation was measured in Chinese hamster ovary-K1 cells overexpressing the rat GCGr (cDNA from Origene, Cambridge Bioscience, Cambridge, United Kingdom) or Chinese hamster lung cells overexpressing the rat GLP-1r (a gift from Bernard Thorens, University of Lausanne, Switzerland). […]
(§3) Data were plotted and in vivo efficacy values calculated.
(§4) cAMP in vitro efficacy and binding in vitro affinity were calculated using nonlinear regression with Prism version 5 software (GraphPad Software Inc, San Diego, California). Differences in cumulative food intake and body weight were analyzed using 1-way ANOVA and post hoc tests with Dunnett or Bonferroni correction (Prism version 5 software). […]

rat GLP-1r = molecular target: T2, rat GLP-1r (Rattus norvegicus, UniProt P32301); test: cAMP accumulation in Chinese hamster lung cells overexpressing the rat GLP-1r; details: Chinese hamster lung cells overexpressing rGLP-1r; 30 min incubation, room temperature, 1 mM IBMX; cAMP ELISA; mean, n = 3
T2 construct: expressed in transfected cells; host or cells: Chinese hamster lung cells
T2 sequence (P32301 22-463): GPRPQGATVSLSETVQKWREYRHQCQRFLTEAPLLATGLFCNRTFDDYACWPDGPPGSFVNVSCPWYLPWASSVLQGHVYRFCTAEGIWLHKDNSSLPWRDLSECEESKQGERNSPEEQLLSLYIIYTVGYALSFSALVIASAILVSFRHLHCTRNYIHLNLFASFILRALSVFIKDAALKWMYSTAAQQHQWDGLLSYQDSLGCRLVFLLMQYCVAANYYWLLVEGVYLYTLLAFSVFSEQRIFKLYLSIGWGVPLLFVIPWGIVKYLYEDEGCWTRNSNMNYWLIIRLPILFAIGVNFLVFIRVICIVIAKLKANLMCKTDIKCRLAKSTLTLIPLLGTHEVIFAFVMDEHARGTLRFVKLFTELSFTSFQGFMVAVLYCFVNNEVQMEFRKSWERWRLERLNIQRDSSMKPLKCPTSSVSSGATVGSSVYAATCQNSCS
Protocol: as §1, §2, §3, §4

rat GCGr [2] = molecular target: T1, rat GCGr; test: Rat GCGr antagonism study: cAMP in the presence of 0.1 nM glucagon; details: n = 3
Protocol: Postincubation, medium was removed and cells lysed with 120 µL/well of 0.1 M hydrochloride + 0.5% nonionic, octylphenol ethoxylate surfactant. cAMP levels were measured using an indirect ELISA according to the manufacturer’s instructions (ADI-900-066, Enzo Life Sciences, United Kingdom), optical density was read at 405 nm on a Biotek ELx808 (Wolf Laboratories, York, United Kingdom). Data were plotted and […] efficacy values calculated.

T1 sequence (P30082 27-485): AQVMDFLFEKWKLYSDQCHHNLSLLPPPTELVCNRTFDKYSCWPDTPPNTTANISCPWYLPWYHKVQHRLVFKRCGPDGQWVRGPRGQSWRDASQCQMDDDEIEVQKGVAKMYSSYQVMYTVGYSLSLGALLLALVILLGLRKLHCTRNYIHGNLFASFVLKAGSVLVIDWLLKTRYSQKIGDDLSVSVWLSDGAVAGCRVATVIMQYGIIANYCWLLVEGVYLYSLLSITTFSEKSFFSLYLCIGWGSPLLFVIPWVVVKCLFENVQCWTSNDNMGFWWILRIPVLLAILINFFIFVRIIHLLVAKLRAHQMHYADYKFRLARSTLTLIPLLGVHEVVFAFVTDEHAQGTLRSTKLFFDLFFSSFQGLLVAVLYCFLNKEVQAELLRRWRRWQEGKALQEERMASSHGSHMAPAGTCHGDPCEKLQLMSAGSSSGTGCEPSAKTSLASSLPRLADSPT

EC50 (rat GCGr [1]): 160 nM
EC50 (rat GLP-1r): 8.1 nM
increase of cAMP levels compared with glucagon stimulation alone (rat GCGr [2]; 30 nM peptide with 0.1 nM glucagon): 9%
decrease of glucagon-mediated cAMP accumulation, mean (rat GCGr [2]; all concentrations tested except 30 nM, with 0.1 nM glucagon, relative to glucagon alone): 40.3%
Structure (SMILES): CC[C@H](C)[C@H](NC(=O)[C@H](CC(N)=O)NC(=O)[C@H](CC(N)=O)NC(=O)[C@H](CCCNC(=N)N)NC(=O)[C@H](CC(N)=O)NC(=O)[C@H](CCCNC(=N)N)NC(=O)[C@H](CCCCN)NC(=O)[C@@H](NC(=O)[C@H](CC(N)=O)NC(=O)[C@H](CCSC)NC(=O)[C@H](CC(C)C)NC(=O)[C@H](Cc1c[nH]c2ccccc12)NC(=O)[C@H](CCC(N)=O)NC(=O)[C@@H](NC(=O)[C@H](Cc1ccccc1)NC(=O)[C@H](CC(=O)O)NC(=O)[C@H](CCC(N)=O)NC(=O)[C@H](C)NC(=O)[C@H](CCCNC(=N)N)NC(=O)[C@H](CCCNC(=N)N)NC(=O)[C@H](CO)NC(=O)[C@H](CC(=O)O)NC(=O)[C@H](CC(C)C)NC(=O)[C@H](Cc1ccc(O)cc1)NC(=O)[C@H](CCCCN)NC(=O)[C@H](CO)NC(=O)[C@H](Cc1ccc(O)cc1)NC(=O)[C@H](CC(=O)O)NC(=O)[C@H](CO)NC(=O)[C@@H](NC(=O)[C@H](Cc1ccccc1)NC(=O)[C@@H](NC(=O)CNC(=O)[C@H](CCC(=O)O)NC(=O)[C@H](CO)NC(=O)[C@@H](N)Cc1c[nH]cn1)[C@@H](C)O)[C@@H](C)O)C(C)C)[C@@H](C)O)C(=O)N[C@@H](C)C(=O)O [OXME3]
